Data as given in ChEMBL document CHEMBL5726789, “Substituted 6, 7-dialkoxy-3-isoquinoline derivatives as inhibitors of phosphodiesterase 10 (PDE 10A)” (2018).

Biological target: cAMP and cAMP-inhibited cGMP 3',5'-cyclic phosphodiesterase 10A (Homo sapiens, UniProt Q9Y233)
Assay: Homogenous Time-Resolved Fluorescence Resonance Energy Transfer (TR-FRET) Technology: The phosphodiesterase assay was developed using the LANCE® cAMP kit (PerkinElmer). The assay buffer contained HBSS with 5 mM HEPES, 0.1% BSA, and 1.5 mM MgCl2, pH 7.4. PDE10A (BPS Bioscience) was used at 200 pg/well (with a specific activity of 3200 pmole/min/μg with assay conditions: 10 mM Tris-HCl, pH 7.4, 10 mM MgCl2, 1 mM MnCl2, 200 μM cAMP, 2.5 kU 5′ nucleotidase, 37° C., 20 min) and PDE4D3 (BPS Bioscience) was used at 100 pg/well (with a specific activity of 32713 pmole/min/μg with assay conditions: 10 mM Tris-HCl, pH 7.4, 10 mM MgCl2, 1 mM MnCl2, 200 μM cAMP, 2.5 kU 5′ nucleotidase, 37° C., 20 min). The Biotin-cAMP tracer, supplied in 10 mmol/L Tris-HCl buffered (pH 8.0) salt solution with 1 mmol/L ethylenediaminetetraacetic acid (EDTA), 0.1% bovine serum albumin (BSA), and 0.05% sodium azide, is used at a dilution of 1/375. The assay detection mixture contained the LANCE Eu-W8044 labeled streptavidin 1/2250 (supplied in 50 mmol/L Tris-HCl buffered (pH 7.8) salt solution with 0.9% sodium chloride (NaCl), 0.1% BSA, and 0.05% sodium azide) and the Alexa Fluor® 647-anti cAMP antibody 1/200 (supplied in 50 mmol/L Tris-HCl buffered (pH 7.8) salt solution with 0.9% NaCl, 0.1% BSA, and 0.05% sodium azide). Chemical compounds were dissolved in DMSO (final concentration 2% (v/v)).

Chain of cAMP and cAMP-inhibited cGMP 3',5'-cyclic phosphodiesterase 10A (Q9Y233 whole entry): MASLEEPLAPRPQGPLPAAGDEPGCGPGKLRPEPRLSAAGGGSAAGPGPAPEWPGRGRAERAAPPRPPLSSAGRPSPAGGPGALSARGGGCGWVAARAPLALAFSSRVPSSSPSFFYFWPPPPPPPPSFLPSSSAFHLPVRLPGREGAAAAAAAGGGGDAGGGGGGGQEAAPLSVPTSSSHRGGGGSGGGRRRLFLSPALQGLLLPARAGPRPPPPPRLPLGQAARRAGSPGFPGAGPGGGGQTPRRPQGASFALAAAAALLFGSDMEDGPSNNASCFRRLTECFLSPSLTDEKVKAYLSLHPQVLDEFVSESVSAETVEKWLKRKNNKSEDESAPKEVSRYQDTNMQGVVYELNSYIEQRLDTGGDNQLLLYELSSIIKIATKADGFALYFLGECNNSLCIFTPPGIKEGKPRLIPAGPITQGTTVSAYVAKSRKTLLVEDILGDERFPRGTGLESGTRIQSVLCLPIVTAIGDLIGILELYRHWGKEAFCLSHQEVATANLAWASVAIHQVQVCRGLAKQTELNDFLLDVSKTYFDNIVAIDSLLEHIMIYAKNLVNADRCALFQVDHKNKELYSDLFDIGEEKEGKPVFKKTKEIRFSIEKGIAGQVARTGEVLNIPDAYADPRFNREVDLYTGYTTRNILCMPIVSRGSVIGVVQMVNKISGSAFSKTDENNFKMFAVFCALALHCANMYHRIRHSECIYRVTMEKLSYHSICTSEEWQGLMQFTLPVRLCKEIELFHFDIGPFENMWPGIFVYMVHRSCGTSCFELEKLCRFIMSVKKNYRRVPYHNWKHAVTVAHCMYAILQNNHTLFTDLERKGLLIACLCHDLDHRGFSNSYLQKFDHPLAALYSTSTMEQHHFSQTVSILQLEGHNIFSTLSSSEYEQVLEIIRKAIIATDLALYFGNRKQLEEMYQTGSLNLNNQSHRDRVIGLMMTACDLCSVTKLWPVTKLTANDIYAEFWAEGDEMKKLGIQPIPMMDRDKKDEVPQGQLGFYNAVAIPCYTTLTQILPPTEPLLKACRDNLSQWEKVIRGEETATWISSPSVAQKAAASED

IC50 [nM] | Structure (SMILES)
26 | CCn1c2ccccc2c2cc(Cc3cncc4cc(OC)c(OC)cc34)ccc21
158 | CCCc1ncc(Cc2cc3cc(OC)ccc3nc2OCC#N)c2cc(OC)c(OC)cc12
59 | CCCc1ncc(Cc2ccc3cccc(OC(C)(C)C(N)=O)c3n2)c2cc(OC)c(OC)cc12
